Test: in vitro
Details: human, hela cells, % viability

| SMILES | viability at 28.5 h, 10 µM |
| --- | --- |
| CC(=O)Nc1ccc(NC(=O)CCC(=O)O)cc1C [CBK265395] | 95.3% |
| CC(=O)c1ccc(-n2ncc(-c3ccc(F)cc3)n2)cc1 [CBK112889] | 100% |
| Cc1ccc2c(c1)c(C)c(C(=O)NCCn1ccc(C)n1)n2C [CBK282609] | 106% |
| CN(C)Cc1c(O)ccc2c(=O)c(Oc3ccc(-c4ccccc4)cc3)c(C(F)(F)F)oc12 [CBK264519] | 107% |
| COc1ccc(S(=O)(=O)N(CC(=O)Nc2cccnc2)c2ccc(F)cc2)cc1 [CBK268445] | 86.5% |
| CC1CCCCC1NC(=O)CSc1cccc2cccnc12 (stereo not shown) [CBK058143] | 96.9% |
| CCn1nc(NC(=O)C2Cc3ccccc3CN2C)cc1C (stereo not shown) [CBK282133] | 93.8% |
| COc1ccc2c(c1)C(O)CC1(CCN(CC(O)c3ccc(-c4ccccc4)cc3)CC1)O2 (stereo not shown) [CBK286398] | 101% |
| OC1(c2ccccc2)CCN(Cc2cncn2Cc2ccccc2)C1 (stereo not shown) [CBK282809] | 110% |
| CC(C)(C)c1cc(NC(=O)c2csc3c(C(F)(F)F)cc(N4CCN(Cc5ccccc5)CC4)nc23)no1 [CBK028962] | 108% |
| O=C(N[C@@H](Cn1cc(F)c(=O)[nH]c1=O)C(=O)O)C1CCCC1 [CBK289660] | 109% |
| COc1cccc2sc(NC(=O)CCCN(C)C)nc12 [CBK149261] | 93% |
| CCCC(NC(=O)Nc1ccnn1CC(C)C)c1nccn1C (stereo not shown) [CBK307444] | 92.7% |
| COc1ccc(-c2cccc(C3CCCN(C(=O)c4ccc(F)cc4)C3)n2)cc1 (stereo not shown) [CBK286107] | 99.3% |
| Cc1oc(C(=O)O)cc1CSC(C)C(=O)O (stereo not shown) [CBK263556] | 93.8% |
| O=C(O)CCC(=O)Nc1ccccc1Sc1ccc(Cl)cc1 [CBK287015] | 99.4% |
| CCCN(CC1CCCO1)C(=O)c1cnn(-c2ccc(F)cc2)c1 (stereo not shown) [CBK283317] | 89.7% |
| CN(C)[C@@H]1CN(Cc2ccccc2O)C[C@H]1c1cn(C)c2ccccc12 [CBK284895] | 88.3% |
| CN(C)CCN(Cc1ccccc1)C(=O)NCc1cccnc1 [CBK145048] | 89.6% |
| OCCCn1cc(CN2CCC(CO)C2)c2ccccc21 (stereo not shown) [CBK282114] | 98.6% |
| O=C(O)c1ccccc1C(=O)Nc1ccc(Oc2cccc3ccccc23)cc1 [CBK265131] | 84.9% |
| CCCCOc1ccc2c(C(F)(F)F)cc(=O)oc2c1 [CBK097821] | 104% |

| SMILES | viability at 28.5 h, 10 µM |
| --- | --- |
| Cn1cc(C2CNCCN2C(=O)c2csc3ccccc23)cn1 (stereo not shown) [CBK304324C] | 108% |
| CC1CCc2n[nH]c(C(=O)N(C)CCc3ccncc3)c2C1 (stereo not shown) [CBK283195] | 99.5% |
| COc1ccccc1CC(=O)N(Cc1nc(-c2cccc(C)c2)no1)C(C)C [CBK269345] | 95.7% |
| CC(C)N(C(=O)c1ccccc1-c1cnc2cccnn12)C(C)C [CBK306900] | 97.8% |
| COc1ccc(OCc2nnn[nH]2)cc1 [CBK270000] | 89.9% |
| COc1ccc(-c2nnc(NC(=O)C3CCCCC3)o2)cc1 [CBK287592] | 83.3% |
| CC(c1ccccc1)C(CC(=O)O)C(=O)NCc1ccccc1 (stereo not shown) [CBK286830] | 101% |
| O=C(O)C1CCCN(C(=O)CCc2c[nH]c3ccccc23)C1 (stereo not shown) [CBK286925] | 88.6% |
| O=C1CCC(=O)N1CCOc1nccnc1OC1CCNCC1 [CBK075084T] | 101% |
| COc1ccc(C(=O)C2=C(O)C(=O)N(CCN3CCOCC3)C2c2ccc(Cl)cc2)cc1 (stereo not shown) [CBK264718] | 103% |
| Cc1cccc(-c2nnc(SCC3CC3)n2CC2CCCCC2)c1 [CBK085423] | 87.7% |
| CCC1=C(C)C(=O)N(C(=O)NCCc2ccc(S(=O)(=O)NC(=O)NC3CCC(C)CC3)cc2)C1 (stereo not shown) [CBK011561] | 93.2% |
| COc1ccc(-c2cnc(N)c(-c3ccc(C=O)cc3)n2)cn1 [CBK064096] | 90.8% |
| Cc1cnc(Nc2cccc(C3CCCN3C(=O)CCOc3ccccc3C)n2)s1 (stereo not shown) [CBK285972] | 112% |
| COc1cc(/C=N/NC(=O)Cc2nnc(N)s2)cc(OC)c1OC [CBK262027] | 109% |
| Cn1c(C(=O)NC2CCOC(C)(C)C2)cc2ccccc21 (stereo not shown) [CBK304344] | 91.7% |
| O=C1OC(c2ccco2)=N/C1=C/Nc1ccc(C(=O)O)cc1 [CBK265195] | 104% |
| Cc1ccccc1-c1cnc(N)c(-c2ccc(O)cc2)n1 [CBK115544] | 95% |
| CCn1nnc(C2=CCCN(C)C2)n1 [CBK034628E] | 104% |
| CCCn1c(SCC(=O)N(C)Cc2ccc(OCC)cc2)n[nH]c1=O [CBK295132] | 90% |
| Cc1ccn(CCC(=O)N2CCC[C@@H]3NC(=O)c4ccccc4OCC/C=C/C[C@@H]32)n1 [CBK292082] | 109% |
| c1ccc(CSc2ccc(-c3ccncc3)nn2)nc1 [CBK287638] | 101% |

| SMILES | viability at 28.5 h, 10 µM |
| --- | --- |
| CC(=O)Nc1cccc(Oc2nccnc2-c2cc3ccccc3s2)c1 [CBK106784] | 101% |
| Nc1nc(Cl)c2ncn([C@H]3C[C@@H](O)[C@@H](CO)O3)c2n1 [CBK201193] | 100% |
| Cc1cc(NC(=O)C2CC2)sc1C(=O)NC(C)c1ccc(F)cc1F (stereo not shown) [CBK296625] | 104% |
| CSCCC(=O)N1CCC2(CCN(C(=O)Cc3c[nH]c4ccccc34)C2)C1 (stereo not shown) [CBK131442] | 95.3% |
| CCOc1cccc(-c2cn3ccnc3c(N(C)CCN(C)C)n2)c1 [CBK066569] | 89.7% |
| CN1CCN(CC(=O)Nc2ccc([N+](=O)[O-])cc2C(=O)c2ccccc2)CC1 [CBK265772] | 104% |
| CNc1nc(NCCCn2c(C)cccc2=O)cc(C2CCOC2)n1 (stereo not shown) [CBK306875] | 117% |
| COc1cc2c(cc1OC)CN(C(=O)CSc1nc(-c3cccnc3)ccc1C#N)CC2 [CBK267464] | 69.8% |
| CCOc1ccc2[nH]c(C(=O)N(C)CCN3CCCCC3)c(C)c2c1 [CBK282699] | 86.3% |
| CCN1CCC2(CC1)NC(=O)Cc1ccccc12 [CBK039810] | 96% |
| CC(=O)Nc1ccc(S(=O)(=O)Oc2ccc(/C=C3\SC(=N)NC3=O)cc2Cl)cc1 [CBK265357] | 100% |
| CCCC(C)C(=O)Nc1ccncc1 (stereo not shown) [CBK057984] | 87.1% |
| COc1ccc(-c2cc(C(=O)Nc3ccc(S(N)(=O)=O)cc3)c3ccccc3n2)cc1OC [CBK263635] | 93.1% |
| COc1ccccc1NC(=O)C1=C(C)Nc2nnnn2C1c1ccc(OC)c([N+](=O)[O-])c1 (stereo not shown) [CBK293954] | 83.8% |
| O=S(=O)(c1ccc(F)cc1)N1CCCC1c1cccc(Cc2ccccc2)n1 (stereo not shown) [CBK286231] | 97.3% |
| COc1ccccc1-c1ccc(C(=O)N(C)CCN(C)C)c(N(C)C)n1 [CBK106075] | 88.5% |
| COc1ccc(-c2nc(NC(=O)COc3ccc(C)c4c3CCC4)cnc2-c2ccc(F)cc2)cc1 [CBK036990] | 88.7% |
| CSCCC(NC(=O)c1c(C)oc2c1CCCC2)C(=O)O (stereo not shown) [CBK264029] | 82% |
| COc1ccc(CNc2cnc3ccccc3c2)c(O)c1 [CBK293951] | 87.5% |
| CN1CCC(C(=O)Nc2cnc(-c3cccc(OC(F)(F)F)c3)c(-c3cccnc3)n2)CC1 [CBK036882] | 108% |
| O=C1CC(NCC2CCCO2)C(=O)N1c1ccc(N2C(=O)CC(NCC3CCCO3)C2=O)cc1 (stereo not shown) [CBK263962] | 89.9% |
| O=C(O)COc1ccc2c(=O)c(Oc3ccc(Cl)cc3)c(C(F)(F)F)oc2c1 [CBK296087] | 119% |

| SMILES | viability at 28.5 h, 10 µM |
| --- | --- |
| CN1CCN(c2ccc(C(=O)O)cc2)CC1 [CBK264773] | 94.8% |
| COc1ccc(CN2C(=O)COC[C@@H]2[C@H](O)c2ccc(NC(C)=O)cc2)cc1 [CBK289674] | 95.6% |
| Cc1ccc(S(=O)(=O)Cc2cccc(C(=O)N3CCN(Cc4ccccc4)CC3)c2)cc1 [CBK269596] | 93% |
| COc1ccc(-c2c(O)n[nH]c2CCC2CCCC2)cc1 [CBK075126] | 88.1% |
| COc1ccc(Nc2cc(-c3cc4ccccc4o3)ncn2)c(C)c1 [CBK091040] | 87.7% |
| COc1ccccc1-c1noc(CN2CCCC(C(F)(F)F)C2)n1 (stereo not shown) [CBK305598] | 93.6% |
| Cc1n[nH]c(C)c1CCC(=O)N/N=C/c1ccccn1 [CBK262887] | 92.9% |
| O=C(CCCC(=O)N1CCCC1)N1CCCC1 [CBK006992] | 108% |
| COCCNC(=O)c1sc2ccccc2c1C1CCN(Cc2ccc3ncccc3c2)C1 (stereo not shown) [CBK285680] | 85.2% |
| COc1ccc(OCCCCCN2CCC3(CC2)OCCc2c3[nH]c3ccccc23)cc1 [CBK113517T] | 0% |
| Cc1nnc(CSc2ncc(-c3ccc(Cl)cc3)n2Cc2ccccc2)o1 [CBK297154] | 103% |
| N#Cc1cc(CN2CCCN(S(=O)(=O)c3ccc(C(F)(F)F)cc3Cl)CC2)ccc1F [CBK063100] | 98.8% |
| O=C(Nc1cnc2ccccc2c1)OCCc1cccnc1 [CBK200126] | 93.5% |
| COc1cc(CNc2cc(-c3ccc(N4CCOCC4)cc3)ncn2)cc(OC)c1OC [CBK091174] | 93.9% |
| COc1ccc2cc(/C=C(\C#N)c3nc(-c4cc5ccccc5oc4=O)cs3)c(Cl)nc2c1 [CBK261623] | 93.9% |
| Cc1cccc(-c2ncc(C(=O)NCCN3CCOCC3)cc2-c2ccc(O)cc2)c1 [CBK037435] | 105% |
| CC(=O)Nc1ccc(C(=O)N2CCC(c3cccc(Cc4ccccc4Cl)n3)CC2)cc1 [CBK286111] | 96.2% |
| O=C1CC(C(=O)Nc2ncccn2)C(c2ccccc2)O1 (stereo not shown) [CBK265130] | 106% |
| COc1cccc2c3c([nH]c12)C1(CCCN(C/C=C\c2ccccc2)C1)NCC3 (stereo not shown) [CBK040138] | 98.3% |
| CC(=O)Nc1ccc(Nc2cc(C)nc(-n3nc(C)cc3C)n2)cc1 [CBK287746] | 103% |
| O=c1c2cnn(-c3ccccc3)c2nc(Cc2ccccc2)n1-c1cccc2ccccc12 [CBK262316] | 82.1% |

Same assay, conditions: human, hela cells, % viability, bulk resorufin, single well

| SMILES | viability at 28.5 h, 10 µM |
| --- | --- |
| CC(=O)Nc1cccc(-c2ccc3c(c2)COC2(CCNCC2)O3)c1 [CBK060956] | 94.5% |
